Laboratory results reported in patent US5861424A, “Composition and method for treating cancer” (priority 1995, dated 1999).
Read-outs that look alike come from different tables or passages of the source.

Assays:
[1] = system: normal monkey kidney epithelial cell line CV-1; assay: Colony formation assay, normal monkey kidney epithelial cells CV-1; conditions: for IC50: Primates, Epithelial cell; for CV-1 (IC50): Table III;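 as to all read-outs here: colonies visualized by crystal violet staining, incubation at 37 °C, IC50 relative to untreated wells given culture medium alone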
[2] = system: human colon carcinoma cell line CX-1; assay: Colony formation assay, human colon carcinoma CX-1; type: cell-based; conditions: for IC50: Homo sapiens, Colon carcinoma cell; for IC50 / CX-1 (IC50): 24 h treatment, colony count after 7 to 10 days; for Selectivity (ratio of IC50 for CV-1 and IC50 for CX-1): CV-1/CX-1
Experimental: Human colon carcinoma cell line CX-1 or normal monkey kidney epithelial cell line CV-1 was chosen as representatives of cancer cells and normal cells, respectively. […] CX-1 cells (2,000 cells/well) and CV-1 cells (1,000 cells/well) were plated in 24-well plastic culture plates. […] The control received culture media only. Cells were treated with compounds of General Formulas (1) to (6) at 37° C. for 24 hours. After rinsing with fresh culture medium three times, the cells were further incubated at 37° C. for 7 to 10 days. Cell colonies were fixed and stained with 2% crystal violet in 70% ethanol for 10 minutes and rinsed in water. […] The selectivity is defined as the ratio of IC50 for CV-1 and IC50 for CX-1.

[3] = system: human melanoma LOX cell line; assay: Colony formation assay, human melanoma LOX; type: cell-based; conditions: Table V
From the text: (§1) The control received culture media only.

[4] = system: human pancreatic carcinoma CRL 1420 cell line; assay: Colony formation assay, human pancreatic carcinoma CRL 1420; type: cell-based; conditions: Homo sapiens, 24 h, Table VII; 24 h treatment
From the text: as §1
The Selectivity values, CRL 1420 values and CV-1 values for compounds of the General Formulas (1) to (6) used in the present invention are shown in Table VII below.

[5] = read-out: CX-1 (IC50), Table III
[6] = read-out: CV-1 (IC50), Table III, 24 h treatment, colony count after 7 to 10 days
[7] = Table III, read-out: CX-1 (IC50)
[8] = 24 h treatment, colony count after 7 to 10 days

| SMILES | IC50 [2, 5] | Selectivity (ratio of IC50 for CV-1 and IC50 for CX-1) ([2]; Table III) | IC50 [1, 6] | IC50 [2, 7] | other results |
| --- | --- | --- | --- | --- | --- |
| CCN1C(C)=CSC1=CC=c1sc(=C2CCC[n+]3c2sc2ccccc23)n(CC)c1=O [Compound 386] | 0.1 µg/mL | 100 | – | – | IC50 ([1]; read-out: CV-1 (IC50)): 10 µg/mL |
| CCN1CCSC1=CC=c1sc(=Cc2sc3cc(OC)c(OC)cc3[n+]2CC)n(CC)c1=O [Compound 134] | 0.1 µg/mL | 100 | – | – | IC50 ([1]; read-out: CV-1 (IC50)): 10 µg/mL |
| CCN1C=C(C)C=CC1=CC=c1sc(=Cc2sc3cc(C)c(C)cc3[n+]2CC)n(CC)c1=O [Compound 397] | – | 400 | 20 µg/mL | 0.05 µg/mL | – |
| CCCCC[n+]1c(C=c2sc(=CC=C3SC=C(C)N3CC)c(=O)n2CC)sc2cc(OC)c(OC)cc21 [Compound 399] | 0.1 µg/mL | 100 | – | – | IC50 ([1]; read-out: CV-1 (IC50)): 10 µg/mL |
| CCN1C=CC(=CC=c2sc(=Cc3sc4ccc5ccccc5c4[n+]3CC)n(CC)c2=O)c2ccccc21 [Compound 307] | – | 150 | 3 µg/mL | 0.02 µg/mL | – |
| CCN1CCSC1=CC=c1sc(=Cc2oc3ccc4ccccc4c3[n+]2CC)n(CC)c1=O [Compound 143] | – | 100 | 5 µg/mL | 0.05 µg/mL | – |
| CCOc1ccc2c(c1)C=CC(=CC=c1sc(=Cc3sc4c5ccccc5ccc4[n+]3CC)n(CC)c1=O)N2CC [Compound 252] | 0.1 µg/mL | > 200 | > 20 µg/mL | – | – |
| CCn1c(=Cc2oc3c4ccccc4ccc3[n+]2CC)sc(=CC=C2N(C)c3ccccc3C2(C)C)c1=O [Compound 208] | – | 600 | 6 µg/mL | 0.01 µg/mL | IC50 ([1]; read-out: CV-1 (IC50), Table V): 6 µg/mL; IC50 ([3]; Homo sapiens, LOX, 24 h, 24 h treatment, read-out: LOX (IC50)): 0.039 µg/mL; Selectivity (CV-1 IC50 / LOX IC50) ([3]; CV-1/LOX): 154 |
| CCn1c(=Cc2cccc[n+]2CC)sc(=CC=C2Sc3ccc4ccccc4c3N2C)c1=O [Compound 385] | 0.2 µg/mL | 100 | 20 µg/mL | – | – |
| CCN1C(=CC=c2sc(=CC3=[N+](CC)CCS3)n(CC)c2=O)C=Cc2ccccc21 [Compound 400] | – | > 250 | > 20 µg/mL | – | – |
| CCN1C(=CC=c2sc(=Cc3sc4ccc5ccccc5c4[n+]3CC)n(CC)c2=O)Sc2ccc3ccccc3c21 [Compound 30] | – | – | 5 µg/mL | 0.025 µg/mL | – |
| CCN1CCSC1=CC=c1sc(=Cc2[se]c3ccccc3[n+]2CC)n(CC)c1=O [Compound 157] | 0.08 µg/mL | 100 | – | – | IC50 ([1]; read-out: CV-1 (IC50)): 8 µg/mL |
| CCN1C(=CC=c2sc(=Cc3sc4ccc5ccccc5c4[n+]3CC)n(CC)c2=O)Sc2c1ccc1ccccc21 [Compound 20] | 0.03 µg/mL | 200 | 6 µg/mL | – | – |
| CCN1C(=CC=c2sc(=Cc3ccc4ccccc4[n+]3CC)n(CC)c2=O)Sc2ccc3ccccc3c21 [Compound 40] | – | 257 | 5.14 µg/mL | 0.02 µg/mL | IC50 ([1]; read-out: CV-1 (IC50), Table VII): 2 µg/mL; IC50 [4]: 0.05 µg/mL |
| CCN1C(=CC=c2sc(=Cc3cc[n+](CC)c4ccccc34)n(CC)c2=O)C=Cc2cc(Cl)ccc21 [Compound 395] | – | 100 | 20 µg/mL | – | CX-1 (IC50) ([2]; Table III): 0.2 µg/mL |
| CCN1C(=CC=c2sc(=Cc3sc4c5ccccc5ccc4[n+]3CC)n(CC)c2=O)C=Cc2cc(Cl)ccc21 [Compound 253] | – | > 500 | > 20 µg/mL | 0.04 µg/mL | – |
| CCn1c(=Cc2sc3cc(Cl)c(Cl)cc3[n+]2CC)sc(=CC=C2Sc3ccc4ccccc4c3N2C)c1=O [Compound 383] | 0.1 µg/mL | 200 | 20 µg/mL | – | – |
| CCN1CCSC1=CC=c1sc(=Cc2sc3c4ccccc4ccc3[n+]2CC)n(CC)c1=O [Compound 138] | – | 160 | – | 0.005 µg/mL | CV-1 (IC50) [1, 8]: 0.8 µg/mL |
| CCN1C=CC(=CC=c2sc(=Cc3sc4ccccc4[n+]3CC)n(CC)c2=O)C=C1 [Compound 317] | 0.2 µg/mL | 100 | 20 µg/mL | – | – |
| CCN1C(C)=CSC1=CC=c1sc(=Cc2oc3cc(C)c(C)cc3[n+]2CC)n(CC)c1=O [Compound 388] | 0.03 µg/mL | 261 | – | – | IC50 ([1]; read-out: CV-1 (IC50)): 8 µg/mL |
| CCN1C(=CC=c2sc(=Cc3sc4c5ccccc5ccc4[n+]3CC)n(CC)c2=O)C(C)(C)c2cc(Cl)ccc21 [Compound 220] | – | 125 | 5 µg/mL | 0.04 µg/mL | – |

| SMILES | IC50 [2, 5] | Selectivity (ratio of IC50 for CV-1 and IC50 for CX-1) ([2]; Table III) | IC50 [1, 6] | IC50 [2, 7] | other results |
| --- | --- | --- | --- | --- | --- |
| CCN1C(=CC=c2sc(=Cc3oc4ccc5ccccc5c4[n+]3CC)n(CC)c2=O)Sc2ccc3ccccc3c21 [Compound 70] | – | 250 | – | 0.04 µg/mL | IC50 ([1]; read-out: CV-1 (IC50)): 10 µg/mL |
| CCN1CCSC1=CC=c1sc(=Cc2oc3c4ccccc4ccc3[n+]2CC)n(CC)c1=O [Compound 390] | 0.08 µg/mL | 250 | 20 µg/mL | – | – |
| CCN1C(=CC=c2sc(=Cc3cc[n+](CC)c4ccccc34)n(CC)c2=O)C=Cc2ccccc21 [Compound 392] | – | 286 | – | – | CV-1 (IC50) [1, 8]: 20 µg/mL; CX-1 (IC50) ([2]; Table III): 0.01 µg/mL |
| CCN1C(=CC=c2sc(=Cc3[se]c4ccccc4[n+]3CC)n(CC)c2=O)Sc2ccc3ccccc3c21 [Compound 74] | 0.1 µg/mL | 100 | – | – | IC50 ([1]; read-out: CV-1 (IC50)): 10 µg/mL |
| CCN1C(C)=CSC1=CC=c1sc(=Cc2sc3ccccc3[n+]2CC)n(CC)c1=O [Compound 92] | – | 180 | – | 0.05 µg/mL | CV-1 (IC50) [1, 8]: 9 µg/mL |
| CCN1C(=CC=c2sc(=Cc3sc4c5ccccc5ccc4[n+]3CC)n(CC)c2=O)C=Cc2cc(C)ccc21 [Compound 254] | 0.1 µg/mL | 100 | – | – | IC50 ([1]; read-out: CV-1 (IC50)): 10 µg/mL |
| CCN1CCSC1=CC=c1sc(=Cc2sc3cccc(OC)c3[n+]2CC)n(CC)c1=O [Compound 154] | – | 125 | 5 µg/mL | 0.04 µg/mL | – |
| CCN1CCSC1=CC=c1sc(=Cc2sc3ccccc3[n+]2CC)n(CC)c1=O [Compound 137] | – | 100 | 5 µg/mL | 0.05 µg/mL | – |
| CCN1C(=CC=c2sc(=Cc3cc[n+](CC)c4ccccc34)n(CC)c2=O)C=Cc2cc(Cl)ccc21 [Compound 396] | – | 250 | – | – | CX-1 (IC50) ([2]; Table III): 0.08 µg/mL |
| CCN1C(=CC=c2sc(=CC3=[N+](CC)CCS3)n(CC)c2=O)C=Cc2ccccc21 [Compound 394] | 0.08 µg/mL | 125 | – | – | IC50 ([1]; read-out: CV-1 (IC50)): 10 µg/mL |
| CCN1C(=CC=c2sc(=Cc3sc4c5ccccc5ccc4[n+]3CC)n(-c3ccccc3)c2=O)Sc2ccc3ccccc3c21 [Compound 68] | – | 100 | 5 µg/mL | – | – |
| CCN1C(=CC=c2sc(=Cc3sc4c5ccccc5ccc4[n+]3CC)n(CC)c2=O)Sc2c1ccc1ccccc21 [Compound 7] | – | 100 | 4 µg/mL | 0.04 µg/mL | – |
| CCN1C(=CC=c2sc(=Cc3cc[n+](CC)c4ccccc34)n(CC)c2=O)C=Cc2ccccc21 [Compound 393] | – | 400 | – | – | CV-1 (IC50) [1, 8]: 20 µg/mL; CX-1 (IC50) ([2]; Table III): 0.05 µg/mL |
| CCN1CCSC1=CC=c1sc(=Cc2sc3c4ccccc4ccc3[n+]2CC)n(CC)c1=O [Compound 151] | – | 250 | – | – | CV-1 (IC50) [1, 8]: 20 µg/mL; CX-1 (IC50) ([2]; Table III): 0.08 µg/mL |
| CCOc1cc2c(cc1C)sc(C=c1sc(=CC=C3N(C)c4ccccc4C3(C)C)c(=O)n1CC)[n+]2CC [Compound 209] | – | 100 | 1 µg/mL | 0.01 µg/mL | – |
| CCn1c(=Cc2sc3cc(C)ccc3[n+]2CC)sc(=CC=C2N(C)c3ccccc3C2(C)C)c1=O [Compound 207] | – | 150 | 1.5 µg/mL | 0.01 µg/mL | – |
| CCN1C=CC=CC1=CC=c1sc(=Cc2sc3ccc4ccccc4c3[n+]2CC)n(CC)c1=O [Compound 398] | – | 400 | 16 µg/mL | 0.04 µg/mL | – |
| CCN1CCSC1=CC=c1sc(=CC2=[N+](CC)CCS2)n(CC)c1=O [Compound 142] | 0.1 µg/mL | 200 | 20 µg/mL | – | – |
| CCN1C(=CC=c2sc(=Cc3sc4c5ccccc5ccc4[n+]3CC)n(CCOC(C)=O)c2=O)Sc2ccc3ccccc3c21 [Compound 67] | – | 200 | – | 0.05 µg/mL | IC50 ([1]; read-out: CV-1 (IC50)): 10 µg/mL |
| CCN1C(C)=CSC1=CC=c1sc(=C2CCC[n+]3c2sc2ccccc23)n(CC)c1=O [Compound 389] | – | 188 | 15 µg/mL | – | CX-1 (IC50) ([2]; Table III): 0.08 µg/mL |
| CCN1CCSC1=CC=c1sc(=Cc2oc3cc(Cl)c(Cl)cc3[n+]2CC)n(CC)c1=O [Compound 391] | – | 114 | – | 0.07 µg/mL | IC50 ([1]; read-out: CV-1 (IC50)): 8 µg/mL |
